{
  "source": "patent US20100034878A1",
  "about": "(priority 2006, published 2010)",
  "key": {"CYP 2C9": {"target": "CYP 2C9 (Homo sapiens, UniProt P11712)", "sequence (P11712 whole entry)": "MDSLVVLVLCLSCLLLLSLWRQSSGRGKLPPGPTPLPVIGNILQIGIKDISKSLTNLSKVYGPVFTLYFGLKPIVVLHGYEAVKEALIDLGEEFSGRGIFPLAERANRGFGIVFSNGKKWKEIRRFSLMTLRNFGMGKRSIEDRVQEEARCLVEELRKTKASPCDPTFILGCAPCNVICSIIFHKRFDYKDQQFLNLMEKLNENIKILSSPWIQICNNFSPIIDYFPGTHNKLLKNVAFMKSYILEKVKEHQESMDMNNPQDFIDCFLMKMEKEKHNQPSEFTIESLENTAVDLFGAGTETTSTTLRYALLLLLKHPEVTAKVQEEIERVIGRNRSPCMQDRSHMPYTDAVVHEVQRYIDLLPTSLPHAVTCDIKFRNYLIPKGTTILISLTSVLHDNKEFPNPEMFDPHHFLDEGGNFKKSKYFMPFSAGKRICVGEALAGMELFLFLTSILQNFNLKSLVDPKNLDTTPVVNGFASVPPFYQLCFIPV", "details": "cited from earlier work"}, "[1]": {"details": "in vivo; cited from earlier work"}, "[2]": {"details": "in vivo; cited from earlier work", "remark": "listed apart in the source"}, "[3]": {"experiment": "daily vitamin K supplementation and INR stability in patients with very unstable INRs", "assay_type": "in vivo", "details": "eight patients with very unstable INR on VKA", "description": "The recommended dietary allowance for vitamin K is approximately 70 mcg. […] In addition, the administration of a VKA often requires that the patient take a half tablet on some days while other patients may require 1.5 or 2 tablets on other days. Consequently, the workable range of vitamin K per tablet is 10 mcg to 600 mcg, the preferred range is 25 mcg to 400 mcg, and the most preferred is 50 mcg to 200 mcg.\nIt was tested whether daily vitamin K supplementation would improve stability of the INR in patients who had very unstable INRs. […] The VKORC1 status itself was not assessed because the test was done prior to the VKORC1 gene being identified. INR values were collected for several months before and after daily vitamin K was started in eight patients with very unstable INR values."}},
  "note": "Like-named read-outs stand apart in the source and are kept apart here.",
  "data": [
    {"molecule": "CC(=O)C[C@H](c1ccccc1)c1c(O)c2ccccc2oc1=O", "note": "(single isomer, unassigned) [R-isomer of warfarin]", "values": [
      {"measurement": "metabolism by the 2C9 enzyme", "setting": "CYP 2C9", "result": "not metabolized by the 2C9 enzyme"}
    ]},
    {"molecule": "CCC(c1ccccc1)c1c(O)c2ccccc2oc1=O", "note": "(racemic) [Racemic phenprocoumon, phenprocoumon]", "values": [
      {"measurement": "fraction eliminated as the parent drug", "setting": "[1]", "result": "approximately 40%"},
      {"measurement": "elimination half-life", "setting": "[2]", "result": "approximately 156 hrs"}
    ]},
    {"molecule": "CC(=O)C[C@@H](c1ccccc1)c1c(O)c2ccccc2oc1=O", "note": "(single isomer, unassigned) [S-isomer of warfarin]", "values": [
      {"measurement": "metabolism by the 2C9 enzyme", "setting": "CYP 2C9; hepatic cytochrome P-450 2C9", "result": "almost totally metabolized by the 2C9 enzyme"}
    ]},
    {"molecule": "vitamin K", "values": [
      {"measurement": "fluctuation of INRs after starting daily vitamin K supplement", "setting": "[3]", "result": "fluctuated less"},
      {"measurement": "percent of INRs in range after versus before starting daily vitamin K", "setting": "[3]; daily vitamin K supplement, INR collected several months before and after", "result": "more than doubled"}
    ]}
  ]
}
